From publication PMC5766581, “NF-κB inducing kinase is a therapeutic target for systemic lupus erythematosus” (Nature Communications, 2018)
Where “and” joins values, the source holds several entries; their conditions need not be identical. Equal values may be shown once.

Assays:
Assay in all cases: SelectScreen kinase panel
Type in all cases: biochemical
[1] = target: T1, PKD1 (Homo sapiens, UniProt Q15139); conditions: NIK SMI1 1 µM; ATP Km app
T1 construct: purchased Invitrogen / ThermoFisher SelectScreen
T1 sequence (Q15139 whole entry): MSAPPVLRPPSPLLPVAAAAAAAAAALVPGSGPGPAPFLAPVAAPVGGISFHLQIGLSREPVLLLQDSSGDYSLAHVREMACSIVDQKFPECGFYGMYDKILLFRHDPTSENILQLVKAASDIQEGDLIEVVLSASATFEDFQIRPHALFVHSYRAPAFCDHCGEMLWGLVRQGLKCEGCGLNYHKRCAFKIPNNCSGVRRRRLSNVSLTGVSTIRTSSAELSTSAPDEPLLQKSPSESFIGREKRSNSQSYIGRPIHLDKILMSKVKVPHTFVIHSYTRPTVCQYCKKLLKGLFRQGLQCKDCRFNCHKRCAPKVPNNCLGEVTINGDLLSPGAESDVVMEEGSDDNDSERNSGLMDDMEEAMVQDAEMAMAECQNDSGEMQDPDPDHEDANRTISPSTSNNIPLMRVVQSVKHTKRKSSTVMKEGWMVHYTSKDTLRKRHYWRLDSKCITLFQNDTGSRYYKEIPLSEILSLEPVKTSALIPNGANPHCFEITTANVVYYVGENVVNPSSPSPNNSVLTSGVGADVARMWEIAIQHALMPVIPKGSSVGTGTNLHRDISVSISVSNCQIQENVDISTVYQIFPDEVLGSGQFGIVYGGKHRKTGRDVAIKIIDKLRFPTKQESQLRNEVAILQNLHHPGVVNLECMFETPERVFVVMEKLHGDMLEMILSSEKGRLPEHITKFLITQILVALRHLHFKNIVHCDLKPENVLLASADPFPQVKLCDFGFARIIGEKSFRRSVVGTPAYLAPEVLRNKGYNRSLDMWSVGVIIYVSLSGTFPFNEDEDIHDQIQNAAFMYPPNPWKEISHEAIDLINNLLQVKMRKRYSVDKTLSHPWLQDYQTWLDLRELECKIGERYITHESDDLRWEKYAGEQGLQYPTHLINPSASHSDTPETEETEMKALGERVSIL
Protocol: (§1) The ability of NIK to catalyze the hydrolysis of adenosine-5′-triphosphate (ATP) was monitored using the Transcreener ADP (adenosine-5′-diphosphate) assay (Bell Brook Labs, Fitchburg, WI). Purified human NIK kinase domain (a.a. 340–694) (0.5 nM) or mouse NIK kinase domain (a.a. 329–675) (1 nM) derived from a baculovirus-infected insect cell expression system was incubated with test compounds for 0.5–2 h in 50 mM HEPES buffer (pH 7.2) containing 10 mM MgCl2, 2 mM dithiothreitol, 10 μM ATP, 0.01% Triton X-100, 0.1% gamma-globulins from bovine blood, 1% dimethylsulfoxide (DMSO), 7 μg/mL ADP antibody and 5 nM ADP-MR121 633 tracer. Reactions were quenched by the addition of 20 mM EDTA and 0.01% Brij 35. The tracer bound to the antibody was displaced by the ADP generated during the NIK reaction, which caused a decrease in fluorescence polarization that was measured by laser excitation at 633 nm with a Fluorescence Correlation Spectroscopy Plus reader (Evotec AG). Equilibrium dissociation constant (Ki) values for NIK inhibitors are calculated from plots of activity vs. inhibitor concentration using Morrison’s quadratic equation that accounts for the potential of tight binding, and by also applying the conversion factor that accounted for competitive inhibition and the concentration of substrate used in the assay relative to its Michaelis constant (Km). The Ki values with hPKD1 (PKCμ) were determined using the same assay conditions as for NIK. Ki measurements for hKHS1 and hLRRK2, as well as broad kinase selectivity profiling for SMI1, were carried out by Invitrogen using their SelectScreen kinase assay panel (ThermoFisher Scientific, Madison, WI). The vendor offered two types of kinase activity assays, a peptide phosphorylation assay (Z′-LYTE) and an ADP quantitation assay (Adapta), as well as one type of kinase ATP site competitive binding assay (LanthaScreen). See vendor web site for technology and protocol details for each specific kinase assay.
(§2) The average % Inhibition of each kinase is reported (Supplementary Table 1).

[2] = target: T2, KHS1 (Homo sapiens, UniProt Q9Y4K4); conditions: NIK SMI1 1 µM; ATP Km app
T2 construct: purchased Invitrogen / ThermoFisher SelectScreen
T2 sequence (Q9Y4K4 whole entry): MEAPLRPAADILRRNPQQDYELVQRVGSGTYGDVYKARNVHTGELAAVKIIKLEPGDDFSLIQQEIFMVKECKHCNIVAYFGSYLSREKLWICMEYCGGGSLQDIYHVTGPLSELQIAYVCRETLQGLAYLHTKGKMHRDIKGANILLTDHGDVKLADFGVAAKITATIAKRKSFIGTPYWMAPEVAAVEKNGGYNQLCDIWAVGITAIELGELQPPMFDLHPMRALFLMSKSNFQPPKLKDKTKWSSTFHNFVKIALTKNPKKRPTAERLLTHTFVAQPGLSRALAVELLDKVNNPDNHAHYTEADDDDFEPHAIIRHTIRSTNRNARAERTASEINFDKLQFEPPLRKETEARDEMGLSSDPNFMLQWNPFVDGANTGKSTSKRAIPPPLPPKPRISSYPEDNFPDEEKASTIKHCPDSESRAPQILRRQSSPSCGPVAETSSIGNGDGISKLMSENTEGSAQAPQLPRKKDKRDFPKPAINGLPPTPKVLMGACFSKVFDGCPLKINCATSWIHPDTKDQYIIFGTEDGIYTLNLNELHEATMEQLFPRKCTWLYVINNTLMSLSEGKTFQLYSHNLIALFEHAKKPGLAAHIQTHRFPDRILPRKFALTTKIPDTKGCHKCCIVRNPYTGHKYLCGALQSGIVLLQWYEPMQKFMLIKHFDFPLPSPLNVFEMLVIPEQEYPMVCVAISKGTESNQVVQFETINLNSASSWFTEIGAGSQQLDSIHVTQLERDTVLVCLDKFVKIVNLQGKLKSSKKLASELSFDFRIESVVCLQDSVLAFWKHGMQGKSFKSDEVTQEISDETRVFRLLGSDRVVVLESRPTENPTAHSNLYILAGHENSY
Protocol: as §1, §2

[3] = target: T3, FGFR4 (Homo sapiens, UniProt P22455)
T3 construct: purchased Invitrogen / ThermoFisher SelectScreen
T3 sequence (P22455 22-802): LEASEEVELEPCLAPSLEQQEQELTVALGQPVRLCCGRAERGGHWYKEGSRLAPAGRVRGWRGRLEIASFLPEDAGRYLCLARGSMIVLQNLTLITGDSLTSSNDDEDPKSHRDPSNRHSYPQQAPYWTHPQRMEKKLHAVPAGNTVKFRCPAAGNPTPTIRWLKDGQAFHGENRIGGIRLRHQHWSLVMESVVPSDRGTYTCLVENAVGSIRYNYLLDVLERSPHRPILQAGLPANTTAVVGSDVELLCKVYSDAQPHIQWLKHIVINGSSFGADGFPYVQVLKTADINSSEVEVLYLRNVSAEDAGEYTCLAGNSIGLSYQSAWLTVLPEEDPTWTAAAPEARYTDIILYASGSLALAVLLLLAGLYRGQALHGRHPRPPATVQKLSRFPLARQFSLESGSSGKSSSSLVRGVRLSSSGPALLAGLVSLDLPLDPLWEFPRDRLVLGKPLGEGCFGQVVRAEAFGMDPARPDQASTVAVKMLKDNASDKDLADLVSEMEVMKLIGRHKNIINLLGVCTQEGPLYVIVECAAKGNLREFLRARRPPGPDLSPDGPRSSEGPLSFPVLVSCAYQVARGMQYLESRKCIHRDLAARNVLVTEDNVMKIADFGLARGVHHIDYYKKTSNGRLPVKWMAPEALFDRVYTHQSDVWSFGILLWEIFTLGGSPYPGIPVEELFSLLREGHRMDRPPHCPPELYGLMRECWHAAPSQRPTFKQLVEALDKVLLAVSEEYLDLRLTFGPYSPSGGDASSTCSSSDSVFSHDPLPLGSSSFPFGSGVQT
Protocol: as §1, §2

[4] = target: T4, MST4 (Homo sapiens, UniProt Q9P289)
T4 construct: purchased Invitrogen / ThermoFisher SelectScreen
Protocol: as §1, §2

[5] = target: T5, PASK (Homo sapiens, UniProt Q96RG2)
T5 construct: purchased Invitrogen / ThermoFisher SelectScreen
Protocol: as §1, §2

[6] = target: T6, CK2_alpha1 (Homo sapiens, UniProt P68400)
T6 construct: purchased Invitrogen / ThermoFisher SelectScreen
Protocol: as §1, §2

[7] = target: T7, IRAK1 (Homo sapiens, UniProt P51617)
T7 construct: purchased Invitrogen / ThermoFisher SelectScreen
Protocol: as §1, §2

[8] = target: T8, Bmx (Homo sapiens, UniProt P51813)
T8 construct: purchased Invitrogen / ThermoFisher SelectScreen
Protocol: as §1, §2

[9] = target: T9, SIK2 (Homo sapiens, UniProt Q9H0K1)
T9 construct: purchased Invitrogen / ThermoFisher SelectScreen
Protocol: as §1, §2

[10] = target: T10, ErbB2 (Homo sapiens, UniProt P04626)
T10 construct: purchased Invitrogen / ThermoFisher SelectScreen
Protocol: as §1, §2

[11] = target: T11, BrSK1 (Homo sapiens, UniProt Q8TDC3)
T11 construct: purchased Invitrogen / ThermoFisher SelectScreen
Protocol: as §1, §2

[12] = target: T12, MSSK1 (Homo sapiens, UniProt Q9UPE1)
T12 construct: purchased Invitrogen / ThermoFisher SelectScreen
T12 sequence (Q9UPE1 whole entry): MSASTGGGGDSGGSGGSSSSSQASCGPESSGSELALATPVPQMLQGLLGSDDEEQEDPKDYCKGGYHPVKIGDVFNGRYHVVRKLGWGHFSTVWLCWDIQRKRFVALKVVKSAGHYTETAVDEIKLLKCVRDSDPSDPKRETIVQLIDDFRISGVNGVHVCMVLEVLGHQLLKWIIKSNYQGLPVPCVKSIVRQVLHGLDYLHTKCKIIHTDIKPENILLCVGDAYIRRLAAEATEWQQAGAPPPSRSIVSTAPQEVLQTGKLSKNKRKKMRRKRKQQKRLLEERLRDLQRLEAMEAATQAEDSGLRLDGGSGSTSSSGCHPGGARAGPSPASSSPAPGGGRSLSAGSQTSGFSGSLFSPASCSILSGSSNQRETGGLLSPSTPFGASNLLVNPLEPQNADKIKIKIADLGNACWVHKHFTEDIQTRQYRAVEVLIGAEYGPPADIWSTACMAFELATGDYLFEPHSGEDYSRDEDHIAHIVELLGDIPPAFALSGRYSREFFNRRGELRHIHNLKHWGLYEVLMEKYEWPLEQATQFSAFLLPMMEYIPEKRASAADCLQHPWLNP
Protocol: as §1, §2

[13] = target: T13, FGFR1 (Homo sapiens, UniProt P11362)
T13 construct: purchased Invitrogen / ThermoFisher SelectScreen
Protocol: as §1, §2

[14] = target: T14, PI3K- A (Homo sapiens, UniProt P42336)
T14 construct: purchased Invitrogen / ThermoFisher SelectScreen
Protocol: as §1, §2

[15] = target: T15, CK1_gamma2 (Homo sapiens, UniProt P78368)
T15 construct: purchased Invitrogen / ThermoFisher SelectScreen
Protocol: as §1, §2

[16] = target: T16, PKC_alpha (Homo sapiens, UniProt P17252)
T16 construct: purchased Invitrogen / ThermoFisher SelectScreen
Protocol: as §1, §2

[17] = target: T17, SGK1 (Homo sapiens, UniProt O00141)
T17 construct: purchased Invitrogen / ThermoFisher SelectScreen
T17 sequence (O00141 whole entry): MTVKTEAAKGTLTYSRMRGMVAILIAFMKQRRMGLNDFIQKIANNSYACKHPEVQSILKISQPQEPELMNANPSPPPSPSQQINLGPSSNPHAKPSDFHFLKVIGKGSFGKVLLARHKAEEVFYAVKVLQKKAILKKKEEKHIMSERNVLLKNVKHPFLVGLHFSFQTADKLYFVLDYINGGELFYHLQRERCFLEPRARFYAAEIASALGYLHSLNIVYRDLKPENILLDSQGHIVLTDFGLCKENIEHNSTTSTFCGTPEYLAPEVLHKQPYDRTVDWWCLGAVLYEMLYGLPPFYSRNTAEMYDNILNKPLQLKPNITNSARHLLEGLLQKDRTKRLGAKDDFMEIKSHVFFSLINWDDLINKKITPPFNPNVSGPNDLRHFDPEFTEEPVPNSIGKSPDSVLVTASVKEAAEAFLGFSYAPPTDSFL
Protocol: as §1, §2

[18] = target: T18, MAP4K4 (Homo sapiens, UniProt O95819)
T18 construct: purchased Invitrogen / ThermoFisher SelectScreen
Protocol: as §1, §2

[19] = target: T19, CDK9/cyclinT1 (Homo sapiens, UniProt P50750)
T19 construct: purchased Invitrogen / ThermoFisher SelectScreen
Protocol: as §1, §2

[20] = target: T20, InsR (Homo sapiens, UniProt P06213)
T20 construct: purchased Invitrogen / ThermoFisher SelectScreen
Protocol: as §1, §2

[21] = target: T21, PKC_eta (Homo sapiens, UniProt P24723)
T21 construct: purchased Invitrogen / ThermoFisher SelectScreen
Protocol: as §1, §2

[22] = target: T22, JAK1 (Homo sapiens, UniProt P23458)
T22 construct: purchased Invitrogen / ThermoFisher SelectScreen
Protocol: as §1, §2

[23] = target: T23, PhK_gamm1 (Homo sapiens, UniProt Q16816)
T23 construct: purchased Invitrogen / ThermoFisher SelectScreen
Protocol: as §1, §2

[24] = target: T24, NEK6 (Homo sapiens, UniProt Q9HC98)
T24 construct: purchased Invitrogen / ThermoFisher SelectScreen
T24 sequence (Q9HC98 whole entry): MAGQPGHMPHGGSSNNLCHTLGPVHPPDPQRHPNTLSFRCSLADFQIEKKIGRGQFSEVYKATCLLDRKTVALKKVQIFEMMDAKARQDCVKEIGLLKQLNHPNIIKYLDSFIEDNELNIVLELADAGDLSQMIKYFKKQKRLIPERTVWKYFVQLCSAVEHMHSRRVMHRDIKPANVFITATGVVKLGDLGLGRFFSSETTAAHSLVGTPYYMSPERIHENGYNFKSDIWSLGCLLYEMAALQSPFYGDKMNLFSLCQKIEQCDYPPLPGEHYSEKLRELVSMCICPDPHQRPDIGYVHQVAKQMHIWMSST
Protocol: as §1, §2

[25] = target: T25, JAK2 (Homo sapiens, UniProt O60674)
T25 construct: purchased Invitrogen / ThermoFisher SelectScreen
Protocol: as §1, §2

[26] = target: T26, Brk (Homo sapiens, UniProt Q13882)
T26 construct: purchased Invitrogen / ThermoFisher SelectScreen
Protocol: as §1, §2

[27] = target: T27, Aurora_B (Homo sapiens, UniProt Q96GD4)
T27 construct: purchased Invitrogen / ThermoFisher SelectScreen
Protocol: as §1, §2

[28] = target: T28, GRK5 (Homo sapiens, UniProt P34947)
T28 construct: purchased Invitrogen / ThermoFisher SelectScreen
Protocol: as §1, §2

[29] = target: T29, ARK5 (Homo sapiens, UniProt O60285)
T29 construct: purchased Invitrogen / ThermoFisher SelectScreen
Protocol: as §1, §2

[30] = target: T30, PKD2 (Homo sapiens, UniProt Q9BZL6)
T30 construct: purchased Invitrogen / ThermoFisher SelectScreen
T30 sequence (Q9BZL6 whole entry): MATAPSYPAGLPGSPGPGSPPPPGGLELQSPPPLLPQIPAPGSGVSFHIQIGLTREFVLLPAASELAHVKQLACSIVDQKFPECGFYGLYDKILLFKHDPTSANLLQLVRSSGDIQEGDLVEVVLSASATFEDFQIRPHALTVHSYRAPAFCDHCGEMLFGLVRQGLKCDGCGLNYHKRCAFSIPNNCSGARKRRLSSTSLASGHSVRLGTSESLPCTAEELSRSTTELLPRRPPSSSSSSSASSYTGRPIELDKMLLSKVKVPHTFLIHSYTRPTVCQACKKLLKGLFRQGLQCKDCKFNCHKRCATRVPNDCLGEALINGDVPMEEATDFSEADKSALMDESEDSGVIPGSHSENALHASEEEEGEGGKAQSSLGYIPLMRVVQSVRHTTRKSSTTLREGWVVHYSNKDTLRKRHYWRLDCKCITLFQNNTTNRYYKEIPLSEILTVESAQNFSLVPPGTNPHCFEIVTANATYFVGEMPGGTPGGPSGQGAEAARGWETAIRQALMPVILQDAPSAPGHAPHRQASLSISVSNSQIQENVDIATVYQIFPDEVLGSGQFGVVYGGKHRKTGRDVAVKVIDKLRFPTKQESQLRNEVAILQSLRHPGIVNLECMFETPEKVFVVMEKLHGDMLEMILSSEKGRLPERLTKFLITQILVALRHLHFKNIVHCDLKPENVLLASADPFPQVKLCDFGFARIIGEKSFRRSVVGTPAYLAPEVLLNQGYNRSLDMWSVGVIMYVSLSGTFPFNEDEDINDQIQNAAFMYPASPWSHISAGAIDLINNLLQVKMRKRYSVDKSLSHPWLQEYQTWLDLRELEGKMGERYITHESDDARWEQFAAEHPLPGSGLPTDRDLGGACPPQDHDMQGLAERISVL
Protocol: as §1, §2

[31] = target: T31, ErbB4 (Homo sapiens, UniProt Q15303)
T31 construct: purchased Invitrogen / ThermoFisher SelectScreen
Protocol: as §1, §2

[32] = target: T32, CLK1 (Homo sapiens, UniProt P49759)
T32 construct: purchased Invitrogen / ThermoFisher SelectScreen
Protocol: as §1, §2

With `COc1cc(C(N)=O)nc(-c2cccc(C#C[C@]3(O)CCN(C)C3=O)c2)c1` [NIK SMI1] the “% Inhibition” value [1] was 79%, the inhibition at 1 µM [1] was greater than 75% and the “% Inhibition” value [2] was > 75% and 96%. The inhibition at 1 µM [3] was 7.5%, the inhibition at 1 µM [4] was 33.5% and the inhibition at 1 µM [5] was 16%. The inhibition at 1 µM [6] was 4.5%, the inhibition at 1 µM [7] was 1.8% and the inhibition at 1 µM [8] was -5%. For the same compound, the inhibition at 1 µM [9] was 5.5%, the inhibition at 1 µM [10] was -1.5% and the inhibition at 1 µM [11] was 13.5%. It also gave an inhibition at 1 µM [12] of 11.5%, an inhibition at 1 µM [13] of -5.5% and an inhibition at 1 µM [14] of -7.5%. The inhibition at 1 µM [15] was 8.5%, the inhibition at 1 µM [16] was 4.5% and the inhibition at 1 µM [17] was 5%. It also gave an inhibition at 1 µM [18] of 45.5%, an inhibition at 1 µM [19] of 15.3% and an inhibition at 1 µM [20] of 2%. It also gave an inhibition at 1 µM [21] of 38%, an inhibition at 1 µM [22] of -7% and an inhibition at 1 µM [23] of 6.5%. For the same compound, the inhibition at 1 µM [24] was 17%, the inhibition at 1 µM [25] was 8.5% and the inhibition at 1 µM [26] was 7%. It also gave an inhibition at 1 µM [27] of 24.5%, an inhibition at 1 µM [28] of 0.5% and an inhibition at 1 µM [29] of 1.5%. It also gave an inhibition at 1 µM [30] of 0%, an inhibition at 1 µM [31] of 7% and an inhibition at 1 µM [32] of 4.5%.
